Test results taken from patent publication US20060142247A1, “Tricyclic heterocycles” (priority 2004, published 2006).

Tested on: HCT 116 cells
Experiment: Viability assay HCT 116 cells (CellTiter-Glo)
Type: cell-based
Details: Homo sapiens, HCT-116, 120 h, HCT 116 human colon carcinoma cells, 5 days incubation, CellTiter-Glo luminescence
Description: Viability Assay—HCT 116 Cells
A viability assay was performed using the CellTiter-Glo® Luminescent Cell Viability Assay (see Promega Corporation's Technical Bulletin No. 288, pp. 1-11 [revised 2/04] which is hereby incorporated by reference in its entirety). This assay is a homogeneous method of determining the number of viable cells in culture based on quantitation of the ATP present, an indicator of metabolically active cells. The assay is designed for use with multiwell formats, making it ideal for automated high-throughput screening (HTS), cell proliferation and cytotoxicity assays. The homogeneous assay procedure involves adding a single reagent (containing luciferase, luciferan substrate, and buffer) directly to cells cultured in serum-supplemented medium. Cell washing, removal of medium and multiple pipetting steps are not required. The system detects as few as 15 cells/well in a 384-well format in 10 minutes after adding reagent and mixing.
The homogeneous “add-mix-measure” format results in cell lysis and generation of a luminescent signal proportional to the amount of ATP present. The amount of ATP is directly proportional to the number of cells present in culture. The above-referenced assay generates a “glow-type” luminescent signal, produced by the luciferase reaction, which has a half-life generally greater than five hours, depending on cell type and medium used. The extended half-life eliminates the need to use reagent injectors and provides flexibility for continuous or batch mode processing of multiple plates. The unique homogeneous format avoids errors that may be introduced by other ATP measurement methods that require multiple steps.
HCT 116 cells (human colon carcinoma, ATCC-No. CCl-247) were cultivated in RPMI 1640 medium with GlutaMAX™ I (cell culture media that contains L-Alanyl-L-Glutamine [a stabilized a form/source of L-Glutamine] from Invitrogen, Cat-No. 61870-010), 2.5% Fetal Calf Serum (FCS, Sigma Cat-No. F4135 (FBS)); 100 Units/ml penicillin/100 μg/ml streptomycin (=Pen/Strep from Invitrogen Cat. No. 15140). For the assay the cells were seeded in 384 well plates, 1000 cells per well, in the same medium. The next day the test compounds were added in various concentrations ranging from 30 μM to 0.0015 μM (10 concentrations, 1:3 diluted). After 5 days the viability assay was done according to the instructions of the manufacturer. In brief: the cell-plate was equilibrated to room temperature for approximately 30 minutes and than the reagent (containing luciferase, luciferan substrate, and buffer) was added. The contents were carefully mixed for 15 minutes to induce cell lysis. After 45 minutes the luminescent signal was measured in Victor 2, (scanning multiwell spectrophotometer, Wallac).
Medium: RPMI 1640 with cell culture media containing L-Alanyl-L-Glutamine [GlutaMAX™ I (Invitrogen, Cat-Nr. 61870)], 5% FCS (Sigma Cat.-No. F4135), Pen/Strep (Invitrogen, Cat No. 15140). • HCT116 (ATCC-No. CCl-247): 1000 cells in 60 μl per well of 384 well plate (Greiner 781098, μClear-plate white) • After seeding incubate plates 24 h at 37° C., 5% CO2 2nd. Day: Induction (Treatment with Compounds, 10 Concentrations):
In order to achieve a final concentration of 30 μM as highest concentration […] of 10 mM compound stock solution were added directly to 163 μl media. Then step e) of the dilution procedure described below, was followed.

SMILES	IC50
CCN1C(=O)C(C)(C)c2cc3nc(-c4n[nH]c5ccc(NC(C)=O)cc45)[nH]c3cc21 [Example 145, N-[3-(5-Ethyl-7,7-dimethyl-6-oxo-3,5,6,7-tetrahydro-imidazo[4,5-f]indol-2-yl)-1H-indazol-5-yl]-acetamide]	1 to 10 µM
CC(C)N1C(=O)C(C)(C)c2cc3[nH]c(-c4n[nH]c5ccc(NS(=O)(=O)c6ccc(F)cc6)cc45)nc3cc21 [Example 142, 4-Fluoro-N-[3-(5-isopropyl-7,7-dimethyl-6-oxo-1,5,6,7-tetrahydro-imidazo[4,5-f]indol-2-yl)-1H-indazol-5-yl]-benzenesulfonamide]	0.1 to 1 µM
C[S+]([O-])CCN1C(=O)C(C)(C)c2cc3nc(-c4n[nH]c5ccccc45)[nH]c3cc21 (stereo not shown) [Example 64, 2-(1H-Indazol-3-yl)-5-(2-methanesulfinyl-ethyl)-7,7-dimethyl-5,7-dihydro-3H-imidazo[4,5-f]indol-6-one]	1 to 10 µM
CCN1C(=O)C(C)(C)c2cc3nc(-c4n[nH]c5ccc(C#N)cc45)[nH]c3cc21 [Example 72, 3-(5-Ethyl-7,7-dimethyl-6-oxo-3,5,6,7-tetrahydro-imidazo[4,5-f]indol-2-yl)-1H-indazole-5-carbonitrile]	0.1 to 1 µM
CCN1C(=O)C(C)(C)c2cc3[nH]c(-c4n[nH]c5ccc(NC(=O)Cc6ccc(C)cc6)cc45)nc3cc21 [Example 117, N-[3-(5-Ethyl-7,7-dimethyl-6-oxo-1,5,6,7-tetrahydro-imidazo[4,5-f]indol-2-yl)-1H-indazol-5-yl]-2-p-tolyl-acetamide]	0.1 to 1 µM
CCN1C(=O)C(C)(C)c2cc3nc(-c4n[nH]c5ccc(C(N)=O)cc45)[nH]c3cc21 [Example 100, 3-(5-Ethyl-7,7-dimethyl-6-oxo-3,5,6,7-tetrahydro-imidazo[4,5-f]indol-2-yl)-1H-indazole-5-carboxylic acid amide]	1 to 10 µM
CCN1C(=O)C(C)(C)c2cc3nc(-c4n[nH]c5cc(Br)ccc45)[nH]c3cc21 [Example 70, 2-(6-Bromo-1H-indazol-3-yl)-5-ethyl-7,7-dimethyl-5,7-dihydro-3H-imidazo[4,5-f]indol-6-one]	0.1 to 1 µM
CCN1C(=O)C(C)(C)c2cc3nc(-c4n[nH]c5ccc(C(=O)NCc6cccc(OC(F)(F)F)c6)cc45)[nH]c3cc21 [Example 86, 3-(5-Ethyl-7,7-dimethyl-6-oxo-3,5,6,7-tetrahydro-imidazo[4,5-f]indol-2-yl)-1H-indazole-5-carboxylic acid 3-trifluoromethoxy-benzylamide]	0.1 to 1 µM
CCN1C(=O)C(C)(C)c2cc3nc(-c4n[nH]c5ccc(C(=O)NCc6ccc(F)cc6F)cc45)[nH]c3cc21 [Example 85, 3-(5-Ethyl-7,7-dimethyl-6-oxo-3,5,6,7-tetrahydro-imidazo[4,5-f]indol-2-yl)-1H-indazole-5-carboxylic acid 2,4-difluoro-benzylamide]	0.1 to 1 µM
CCN(CC)CCN1C(=O)C(C)(C)c2cc3nc(-c4n[nH]c5ccccc45)[nH]c3cc21 [Example 22, 5-(2-Diethylamino-ethyl)-2-(1H-indazol-3-yl)-7,7-dimethyl-5,7-dihydro-3H-imidazo[4,5-f]indol-6-one]	0.1 to 1 µM
CCN1C(=O)C(C)(C)c2cc3nc(-c4n[nH]c5ccc(C(=O)OC)cc45)[nH]c3cc21 [Example 101, 3-(5-Ethyl-7,7-dimethyl-6-oxo-3,5,6,7-tetrahydro-imidazo[4,5-f]indol-2-yl)-1H-indazole-5-carboxylic acid methyl ester]	0.1 to 1 µM
CSCCN1C(=O)C(C)(C)c2cc3nc(-c4n[nH]c5ccccc45)[nH]c3cc21 [Example 25, 2-(1H-Indazol-3-yl)-7,7-dimethyl-5-(2-methylsulfanyl-ethyl)-5,7-dihydro-3H-imidazo[4,5-f]indol-6-one]	0.1 to 1 µM
CC1(C)C(=O)N(CCNC(=O)C2CC2)c2cc3[nH]c(-c4n[nH]c5ccccc45)nc3cc21 [Example 56, Cyclopropanecarboxylic acid {2-[2-(1H-indazol-3-yl)-7,7-dimethyl-6-oxo-6,7-dihydro-3H-imidazo[4,5-f]indol-5-yl]-ethyl}-amide]	0.1 to 1 µM

Other lines, results leading:

IC50	SMILES
0.1 to 1 µM	COc1cc(CNC(=O)CN2C(=O)C(C)(C)c3cc4nc(-c5n[nH]c6ccccc56)[nH]c4cc32)cc(OC)c1 [Example 47, N-(3,5-Dimethoxy-benzyl)-2-[2-(1H-indazol-3-yl)-7,7-dimethyl-6-oxo-6,7-dihydro-3H-imidazo[4,5-f]indol-5-yl]-acetamide]
0.1 to 1 µM	CCN1C(=O)C(C)(C)c2cc3nc(-c4n[nH]c5cc(C(=O)Nc6ccccc6)ccc45)[nH]c3cc21 [Example 108, 3-(5-Ethyl-7,7-dimethyl-6-oxo-3,5,6,7-tetrahydro-imidazo[4,5-f]indol-2-yl)-1H-indazole-6-carboxylic acid phenylamide]
0.1 to 1 µM	CC(C)N1C(=O)C(C)(C)c2cc3[nH]c(-c4n[nH]c5ccc(NS(=O)(=O)c6ccccc6[N+](=O)[O-])cc45)nc3cc21 [Example 144, N-[3-(5-Isopropyl-7,7-dimethyl-6-oxo-1,5,6,7-tetrahydro-imidazo[4,5-f]indol-2-yl)-1H-indazol-5-yl]-2-nitro-benzenesulfonamide]
0.1 to 1 µM	CC1(C)C(=O)N(CC(=O)NOCc2ccccc2)c2cc3[nH]c(-c4n[nH]c5ccccc45)nc3cc21 [Example 50, N-Benzyloxy-2-[2-(1H-indazol-3-yl)-7,7-dimethyl-6-oxo-6,7-dihydro-3H-imidazo[4,5-f]indol-5-yl]-acetamide]
0.1 to 1 µM	CCN1C(=O)C(C)(C)c2cc3nc(-c4n[nH]c5ccc(C(=O)NCc6cccc(Cl)c6)cc45)[nH]c3cc21 [Example 88, 3-(5-Ethyl-7,7-dimethyl-6-oxo-3,5,6,7-tetrahydro-imidazo[4,5-f]indol-2-yl)-1H-indazole-5-carboxylic acid 3-chloro-benzylamide]
0.1 to 1 µM	CC1(C)C(=O)N(CC(=O)NCc2ccc(F)cc2)c2cc3[nH]c(-c4n[nH]c5ccccc45)nc3cc21 [Example 46, N-(4-Fluoro-benzyl)-2-[2-(1H-indazol-3-yl)-7,7-dimethyl-6-oxo-6,7-dihydro-3H-imidazo[4,5-f]indol-5-yl]-acetamide]
0.1 to 1 µM	CC1(C)C(=O)N(CC(=O)NCc2cccnc2)c2cc3[nH]c(-c4n[nH]c5ccccc45)nc3cc21 [Example 41, 2-[2-(1H-Indazol-3-yl)-7,7-dimethyl-6-oxo-6,7-dihydro-3H-imidazo[4,5-f]indol-5-yl]-N-pyridin-3-ylmethyl-acetamide]
0.1 to 1 µM	CC1(C)C(=O)N(CCNS(C)(=O)=O)c2cc3[nH]c(-c4n[nH]c5ccccc45)nc3cc21 [Example 61, N-{2-[2-(1H-Indazol-3-yl)-7,7-dimethyl-6-oxo-6,7-dihydro-3H-imidazo[4,5-f]indol-5-yl]-ethyl}-methanesulfonamide]
0.1 to 1 µM	CCN1C(=O)C(C)(C)c2cc3[nH]c(-c4n[nH]c5ccc(NC(=O)c6ccccn6)cc45)nc3cc21 [Example 116, Pyridine-2-carboxylic acid [3-(5-ethyl-7,7-dimethyl-6-oxo-1,5,6,7-tetrahydro-imidazo[4,5-f]indol-2-yl)-1H-indazol-5-yl]-amide]
0.1 to 1 µM	CC1(C)C(=O)N(CCS(C)(=O)=O)c2cc3[nH]c(-c4n[nH]c5ccccc45)nc3cc21 [Example 65, 2-(1H-Indazol-3-yl)-5-(2-methanesulfonyl-ethyl)-7,7-dimethyl-5,7-dihydro-3H-imidazo[4,5-f]indol-6-one]
0.1 to 1 µM	CCC(=O)Nc1ccc2[nH]nc(-c3nc4cc5c(cc4[nH]3)C(C)(C)C(=O)N5CC)c2c1 [Example 122, N-[3-(5-Ethyl-7,7-dimethyl-6-oxo-1,5,6,7-tetrahydro-imidazo[4,5-f]indol-2-yl)-1H-indazol-5-yl]-propionamide]
0.24 µM	CC1(C)C(=O)N(Cc2nccs2)c2cc3[nH]c(-c4n[nH]c5ccccc45)nc3cc21 [Example 32, 2-(1H-Indazol-3-yl)-7,7-dimethyl-5-thiazol-2-ylmethyl-5,7-dihydro-3H-imidazo[4,5-f]indol-6-one]
